Assay results taken from the supplement of paper PMC10307832.

Assays:
Experiment in all cases: relative viability (nuclei count vs DMSO), 5 days (fraction); higher = more cells survive
Alisertib = compound: COc1cc(Nc2ncc3c(n2)-c2ccc(Cl)cc2C(c2c(F)cccc2OC)=NC3)ccc1C(=O)O [Alisertib]
Method in brief: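 For viability, nuclei in each treated well were divided by nuclei in vehicle wells and the median across plates was taken. Lung cancer cell lines in 1536-well plates were pinned with five library-drug doses (not always all listed) spaced by √10, cultured 5 days without medium change, and imaged at 4× after Hoechst staining, with plates passing only at control CV below 25% and at least one doubling.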

Alisertib + Luminespib = compound: COc1cc(Nc2ncc3c(n2)-c2ccc(Cl)cc2C(c2c(F)cccc2OC)=NC3)ccc1C(=O)O [Alisertib] + CCNC(=O)c1noc(-c2cc(C(C)C)c(O)cc2O)c1-c1ccc(CN2CCOCC2)cc1 [Luminespib] (partner 0.01 µM)
Method in brief: (§1)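 Nuclei were stained with Hoechst during a one-step fixation (final 0.05% Triton X-100, 1% formaldehyde, 1 ug/ml Hoechst) carried out 5 days after dosing, then counted on 4× images. The cells, lung cancer lines in 1536-well plates, had been dosed by pin tool the day after seeding with one drug alone or a fixed anchor-drug dose plus five library-drug doses (not always all listed) in √10 steps. Relative viability is the nuclei count in treated wells divided by that in vehicle wells, and each value is the median of duplicate plates.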

Alisertib + Foretinib = compound: COc1cc(Nc2ncc3c(n2)-c2ccc(Cl)cc2C(c2c(F)cccc2OC)=NC3)ccc1C(=O)O [Alisertib] + COc1cc2c(Oc3ccc(NC(=O)C4(C(=O)Nc5ccc(F)cc5)CC4)cc3F)ccnc2cc1OCCCN1CCOCC1 [Foretinib] (partner 0.25 µM)
Method in brief: as §1

Alisertib + OSI-027 = compound: COc1cc(Nc2ncc3c(n2)-c2ccc(Cl)cc2C(c2c(F)cccc2OC)=NC3)ccc1C(=O)O [Alisertib] + COc1cccc2cc(-c3nc([C@H]4CC[C@H](C(=O)O)CC4)n4ncnc(N)c34)[nH]c12 [OSI-027] (partner 0.5 µM)
Method in brief: as §1

Alisertib + Tozasertib = compound: COc1cc(Nc2ncc3c(n2)-c2ccc(Cl)cc2C(c2c(F)cccc2OC)=NC3)ccc1C(=O)O [Alisertib] + Cc1cc(Nc2cc(N3CCN(C)CC3)nc(Sc3ccc(NC(=O)C4CC4)cc3)n2)n[nH]1 [Tozasertib] (partner 0.1 µM)
Method in brief: as §1

Alisertib + Dasatinib = compound: COc1cc(Nc2ncc3c(n2)-c2ccc(Cl)cc2C(c2c(F)cccc2OC)=NC3)ccc1C(=O)O [Alisertib] + Cc1nc(Nc2ncc(C(=O)Nc3c(C)cccc3Cl)s2)cc(N2CCN(CCO)CC2)n1 [Dasatinib] (partner 0.075 µM)
Method in brief: as §1

Alisertib + Phenformin = compound: COc1cc(Nc2ncc3c(n2)-c2ccc(Cl)cc2C(c2c(F)cccc2OC)=NC3)ccc1C(=O)O [Alisertib] + N=C(N)NC(=N)NCCc1ccccc1 [Phenformin] (partner 250 µM)
Method in brief: as §1

Alisertib + Trametinib = compound: COc1cc(Nc2ncc3c(n2)-c2ccc(Cl)cc2C(c2c(F)cccc2OC)=NC3)ccc1C(=O)O [Alisertib] + CC(=O)Nc1cccc(-n2c(=O)n(C3CC3)c(=O)c3c(Nc4ccc(I)cc4F)n(C)c(=O)c(C)c32)c1 [Trametinib] (partner 0.02 µM)
Method in brief: as §1

Alisertib + Palbociclib = compound: COc1cc(Nc2ncc3c(n2)-c2ccc(Cl)cc2C(c2c(F)cccc2OC)=NC3)ccc1C(=O)O [Alisertib] + CC(=O)c1c(C)c2cnc(Nc3ccc(N4CCNCC4)cn3)nc2n(C2CCCC2)c1=O [Palbociclib] (partner 0.5 µM)
Method in brief: as §1

Alisertib + AZD7762 = compound: COc1cc(Nc2ncc3c(n2)-c2ccc(Cl)cc2C(c2c(F)cccc2OC)=NC3)ccc1C(=O)O [Alisertib] + NC(=O)Nc1cc(-c2cccc(F)c2)sc1C(=O)N[C@H]1CCCNC1 [AZD7762] (partner 0.2 µM)
Method in brief: as §1

Alisertib + Pemetrexed = compound: COc1cc(Nc2ncc3c(n2)-c2ccc(Cl)cc2C(c2c(F)cccc2OC)=NC3)ccc1C(=O)O [Alisertib] + Nc1nc2[nH]cc(CCc3ccc(C(=O)N[C@@H](CCC(=O)O)C(=O)O)cc3)c2c(=O)[nH]1 [Pemetrexed] (partner 0.2 µM)
Method in brief: as §1

Alisertib + Decitabine = compound: COc1cc(Nc2ncc3c(n2)-c2ccc(Cl)cc2C(c2c(F)cccc2OC)=NC3)ccc1C(=O)O [Alisertib] + Nc1ncn([C@H]2C[C@H](O)[C@@H](CO)O2)c(=O)n1 [Decitabine] (partner 2 µM)
Method in brief: as §1

Alisertib + Vorinostat = compound: COc1cc(Nc2ncc3c(n2)-c2ccc(Cl)cc2C(c2c(F)cccc2OC)=NC3)ccc1C(=O)O [Alisertib] + O=C(CCCCCCC(=O)Nc1ccccc1)NO [Vorinostat] (partner 1 µM)
Method in brief: as §1

Alisertib + Olaparib = compound: COc1cc(Nc2ncc3c(n2)-c2ccc(Cl)cc2C(c2c(F)cccc2OC)=NC3)ccc1C(=O)O [Alisertib] + O=C(c1cc(Cc2n[nH]c(=O)c3ccccc23)ccc1F)N1CCN(C(=O)C2CC2)CC1 [Olaparib] (partner 8 µM)
Method in brief: as §1

NCI-H1623 showed a relative viability (Alisertib; 0.005 µM) of 0.841, a relative viability (Alisertib; 0.01581 µM) of 0.856 and a relative viability (Alisertib; 0.05 µM) of 0.656. The relative viability (Alisertib; 0.1581 µM) was 0.4, the relative viability (Alisertib; 0.5 µM) was 0.395 and the relative viability (Alisertib + Luminespib; first compound 0.005 µM) was 0.499. The relative viability (Alisertib + Luminespib; first compound 0.01581 µM) was 0.496, the relative viability (Alisertib + Luminespib; first compound 0.05 µM) was 0.385 and the relative viability (Alisertib + Luminespib; first compound 0.1581 µM) was 0.33. It also gave a relative viability (Alisertib + Luminespib; first compound 0.5 µM) of 0.379, a relative viability (Alisertib + Foretinib; first compound 0.005 µM) of 0.884 and a relative viability (Alisertib + Foretinib; first compound 0.01581 µM) of 0.848. For the same cell line, the relative viability (Alisertib + Foretinib; first compound 0.05 µM) was 0.569, the relative viability (Alisertib + Foretinib; first compound 0.1581 µM) was 0.425 and the relative viability (Alisertib + Foretinib; first compound 0.5 µM) was 0.424. For the same cell line, the relative viability (Alisertib + OSI-027; first compound 0.005 µM) was 0.439, the relative viability (Alisertib + OSI-027; first compound 0.01581 µM) was 0.439 and the relative viability (Alisertib + OSI-027; first compound 0.05 µM) was 0.398. It also gave a relative viability (Alisertib + OSI-027; first compound 0.1581 µM) of 0.295, a relative viability (Alisertib + OSI-027; first compound 0.5 µM) of 0.309 and a relative viability (Alisertib + Tozasertib; first compound 0.005 µM) of 0.37. It also gave a relative viability (Alisertib + Tozasertib; first compound 0.01581 µM) of 0.398, a relative viability (Alisertib + Tozasertib; first compound 0.05 µM) of 0.424 and a relative viability (Alisertib + Tozasertib; first compound 0.1581 µM) of 0.386. It also gave a relative viability (Alisertib + Tozasertib; first compound 0.5 µM) of 0.425, a relative viability (Alisertib + Dasatinib; first compound 0.005 µM) of 0.587 and a relative viability (Alisertib + Dasatinib; first compound 0.01581 µM) of 0.647. The relative viability (Alisertib + Dasatinib; first compound 0.05 µM) was 0.573, the relative viability (Alisertib + Dasatinib; first compound 0.1581 µM) was 0.344 and the relative viability (Alisertib + Dasatinib; first compound 0.5 µM) was 0.337. The relative viability (Alisertib + Phenformin; first compound 0.005 µM) was 0.619, the relative viability (Alisertib + Phenformin; first compound 0.01581 µM) was 0.592 and the relative viability (Alisertib + Phenformin; first compound 0.05 µM) was 0.501. The relative viability (Alisertib + Phenformin; first compound 0.1581 µM) was 0.382 and the relative viability (Alisertib + Phenformin; first compound 0.5 µM) was 0.337.

SW 900 was tested, and the relative viability (Alisertib; 0.005 µM) was 0.635, the relative viability (Alisertib; 0.01581 µM) was 0.81 and the relative viability (Alisertib; 0.05 µM) was 0.506. The relative viability (Alisertib; 0.1581 µM) was 0.264, the relative viability (Alisertib; 0.5 µM) was 0.24 and the relative viability (Alisertib + Trametinib; first compound 0.005 µM) was 0.917. It also gave a relative viability (Alisertib + Trametinib; first compound 0.01581 µM) of 0.827, a relative viability (Alisertib + Trametinib; first compound 0.05 µM) of 0.374 and a relative viability (Alisertib + Trametinib; first compound 0.1581 µM) of 0.217. It also gave a relative viability (Alisertib + Trametinib; first compound 0.5 µM) of 0.144, a relative viability (Alisertib + Palbociclib; first compound 0.005 µM) of 0.461 and a relative viability (Alisertib + Palbociclib; first compound 0.01581 µM) of 0.475. The relative viability (Alisertib + Palbociclib; first compound 0.05 µM) was 0.303, the relative viability (Alisertib + Palbociclib; first compound 0.1581 µM) was 0.245 and the relative viability (Alisertib + Palbociclib; first compound 0.5 µM) was 0.227. It also gave a relative viability (Alisertib + Luminespib; first compound 0.005 µM) of 0.16, a relative viability (Alisertib + Luminespib; first compound 0.01581 µM) of 0.167 and a relative viability (Alisertib + Luminespib; first compound 0.05 µM) of 0.182. It also gave a relative viability (Alisertib + Luminespib; first compound 0.1581 µM) of 0.188, a relative viability (Alisertib + Luminespib; first compound 0.5 µM) of 0.176 and a relative viability (Alisertib + Foretinib; first compound 0.005 µM) of 0.68. For the same cell line, the relative viability (Alisertib + Foretinib; first compound 0.01581 µM) was 0.832, the relative viability (Alisertib + Foretinib; first compound 0.05 µM) was 0.598 and the relative viability (Alisertib + Foretinib; first compound 0.1581 µM) was 0.194. For the same cell line, the relative viability (Alisertib + Foretinib; first compound 0.5 µM) was 0.186, the relative viability (Alisertib + OSI-027; first compound 0.005 µM) was 0.532 and the relative viability (Alisertib + OSI-027; first compound 0.01581 µM) was 0.399. It also gave a relative viability (Alisertib + OSI-027; first compound 0.05 µM) of 0.543, a relative viability (Alisertib + OSI-027; first compound 0.1581 µM) of 0.167 and a relative viability (Alisertib + OSI-027; first compound 0.5 µM) of 0.111. The relative viability (Alisertib + Tozasertib; first compound 0.005 µM) was 0.557, the relative viability (Alisertib + Tozasertib; first compound 0.01581 µM) was 0.54 and the relative viability (Alisertib + Tozasertib; first compound 0.05 µM) was 0.375. It also gave a relative viability (Alisertib + Tozasertib; first compound 0.1581 µM) of 0.241, a relative viability (Alisertib + Tozasertib; first compound 0.5 µM) of 0.191 and a relative viability (Alisertib + Dasatinib; first compound 0.005 µM) of 0.494. The relative viability (Alisertib + Dasatinib; first compound 0.01581 µM) was 0.435, the relative viability (Alisertib + Dasatinib; first compound 0.05 µM) was 0.404 and the relative viability (Alisertib + Dasatinib; first compound 0.1581 µM) was 0.171. The relative viability (Alisertib + Dasatinib; first compound 0.5 µM) was 0.172, the relative viability (Alisertib + Phenformin; first compound 0.005 µM) was 0.434 and the relative viability (Alisertib + Phenformin; first compound 0.01581 µM) was 0.589. For the same cell line, the relative viability (Alisertib + Phenformin; first compound 0.05 µM) was 0.442, the relative viability (Alisertib + Phenformin; first compound 0.1581 µM) was 0.18 and the relative viability (Alisertib + Phenformin; first compound 0.5 µM) was 0.141. For the same cell line, the relative viability (Alisertib + AZD7762; first compound 0.005 µM) was 0.568, the relative viability (Alisertib + AZD7762; first compound 0.01581 µM) was 0.617 and the relative viability (Alisertib + AZD7762; first compound 0.05 µM) was 0.637. The relative viability (Alisertib + AZD7762; first compound 0.1581 µM) was 0.232, the relative viability (Alisertib + AZD7762; first compound 0.5 µM) was 0.17 and the relative viability (Alisertib + Pemetrexed; first compound 0.005 µM) was 0.445. The relative viability (Alisertib + Pemetrexed; first compound 0.01581 µM) was 0.459, the relative viability (Alisertib + Pemetrexed; first compound 0.05 µM) was 0.438 and the relative viability (Alisertib + Pemetrexed; first compound 0.1581 µM) was 0.178. It also gave a relative viability (Alisertib + Pemetrexed; first compound 0.5 µM) of 0.194, a relative viability (Alisertib + Decitabine; first compound 0.005 µM) of 0.419 and a relative viability (Alisertib + Decitabine; first compound 0.01581 µM) of 0.377. It also gave a relative viability (Alisertib + Decitabine; first compound 0.05 µM) of 0.296, a relative viability (Alisertib + Decitabine; first compound 0.1581 µM) of 0.213 and a relative viability (Alisertib + Decitabine; first compound 0.5 µM) of 0.255. For the same cell line, the relative viability (Alisertib + Vorinostat; first compound 0.005 µM) was 0.351, the relative viability (Alisertib + Vorinostat; first compound 0.01581 µM) was 0.369 and the relative viability (Alisertib + Vorinostat; first compound 0.05 µM) was 0.476. The relative viability (Alisertib + Vorinostat; first compound 0.1581 µM) was 0.221, the relative viability (Alisertib + Vorinostat; first compound 0.5 µM) was 0.223 and the relative viability (Alisertib + Olaparib; first compound 0.005 µM) was 0.897. It also gave a relative viability (Alisertib + Olaparib; first compound 0.01581 µM) of 0.648, a relative viability (Alisertib + Olaparib; first compound 0.05 µM) of 0.306 and a relative viability (Alisertib + Olaparib; first compound 0.1581 µM) of 0.29. It also gave a relative viability (Alisertib + Olaparib; first compound 0.5 µM) of 0.298.
